# Patent US9274101B2 (BIOLOG, Inc., priority 2001, dated 2016)
# Where a SMILES comes first, the peptide text is derived from it.
# How the values were obtained:
# E. coli MG1655 [1] = assay type: cell-based, Escherichia coli
# ten strains of E. coli = assay type: cell-based, Escherichia coli
# E. coli MG1655 [2] = assay type: cell-based, Escherichia coli; remark: listed apart in the source
# HL-60 cells = experiment: HL-60 responses to selected compounds at a range of concentrations; assay type: cell-based, human
# Description: In this Example, methods for testing unattached cells for their ability to use various concentrations of selected carbon sources are described. The carbon sources used in this Example were identified by the methods disclosed in Example 27. Similarly, HL-60 cells were cultured as described in Example 27.
# After washing, HL-60 cells were resuspended in DME-R. An aliquot of the cell suspension was counted by trypan blue exclusion and the cell density was adjusted to 6.67×10^5/mL. Fifty μL of DME-R were added to each well of the appropriate number of half area, 96-well plates, followed by 23 μL of the appropriate dilution of each test energy source. Stocks of 133 mM of each test chemical were prepared in tissue culture grade water, sterile filtered, and dilutions were prepared in a master plate so that, upon dilution in a total volume of 150 μL, the final concentrations would be 0.033 to 20 mM. Negative control wells received 23 μL of tissue culture grade water. The cells were plated at a volume of 75 μL/well, giving a final cell density of 5×10^4/well. For each plate containing energy sources and cells, a second, control plate containing only energy sources was prepared. Plates were incubated at 5% CO2, 90-100% humidity, and 37° C. for 24 hours prior to addition of the MTS/MPMS colorometric reagent (7.5 μL/well). The color formed in each well after an additional 24 hour incubation period, was measured on a plate reader at 490 nm with a reference wavelength of 650 nm. OD values from the control plate were subtracted from the OD values obtained with cells prior to normalizing the data to % negative control (cells without added energy source).
# HepG2 cells = HepG2 cells on flat bottom plastic wells, energy sources at a range of concentrations; assay type: cell-based, human; settings: Homo sapiens, HepG2, 72 h, read-out: HepG2 Cells Responses After 72 hours in Culture and a 4 hour Color Development Period
# Description: In this Example, methods for testing adherent cells for their ability to use multiple carbon sources are described. The human hepatocellular carcinoma cell line known as HepG2 (Knowles et al., Science, 209:497-499 [1980]) was chosen for this experiment. However, this application is not intended to be limited to the use of HepG2 cells, hepatocytes, carcinoma cells or even human cells.
# HepG2 cells were grown in Falcon tissue culture flasks with vented tops. The culture medium used was Minimal Essential medium (MEM, Invitrogen 11095) with 1 g/L glucose, 2 mM L-glutamine, 2.2 g/L sodium bicarbonate, 10 mg/L phenol red, and supplemented with 0.1 mM Nonessential Amino Acids, 1 mM sodium pyruvate, 50 U/mL penicillin, 50 μg/mL streptomycin, and 10% (v/v) heat inactivated fetal bovine serum (HI FBS, Invitrogen 16140). The cells were seeded at 2×10^4/cm^2 and used 3 days after initiation of culture. During all incubations, the cells were kept in an atmosphere of 5% CO2, 90-100% humidity, and 37° C. Cells were harvested by trypsinization for 3 minutes in 0.25% trypsin-1 mM EDTA and resuspended in an equal volume of culture medium. A viable cell count was obtained by trypan blue exclusion and an appropriate volume of the cell suspension (to have 33% more viable cells than was sufficient for the experiment) was placed in a polypropylene centrifuge tube. Cells were pelleted by centrifugation at 350×g for 10 minutes at room temperature, resuspended in Dulbecco's Phosphate Buffered Saline (D-PBS, Invitrogen 14040) and centrifuged a second time. Cells were then resuspended to two-thirds the final volume needed in Dulbecco' ? s Modified Eagle's Medium (DME, Sigma D5030) containing 10% HI FBS and penicillin-streptomycin but without glucose, L-glutamine, sodium pyruvate, and phenol red. An aliquot was counted by trypan blue exclusion and the cell density was adjusted to 1.28×10^5/mL. Cells were plated in 100 μL/well in wells of standard, 96-well plates (4×10^4 cells/cm^2) and allowed to adhere overnight prior to addition of test chemicals.
# For assay, the culture medium was aspirated, the wells were washed once with D-PBS and 170 μL of DME were added to each well, followed by 30 μL of the appropriate dilution of each test energy source. Stocks of 133 mM of each test chemical were prepared in tissue culture grade water, sterile filtered, and dilutions were prepared in a master plate so that, upon dilution into a regular 96-well MICROPLATE a total well volume of 200 μL, the final concentrations would be 0.033 to 20 mM. Negative control wells received 30 μL of tissue culture grade water. For each plate containing energy sources and cells, a second, control plate containing only energy sources was prepared. Plates were incubated at 5% CO2, 90-100% humidity, and 37° C. for 48 to 72 hours prior to addition of the MTS/PMS colorometric reagent (10 μL/well). The color formed in each well 4-24 hours after addition of the calorimetric reagent, was measured with a plate reader at 490 nm with a reference wavelength of 650 nm. OD values from the control plate were subtracted from the OD values obtained with cells prior to normalizing the data to % negative control (cells without added energy source).
# [3] = tested on: Undifferentiated HL-60 cells; experiment: Energy use by undifferentiated HL-60 cells; assay type: cell-based, human; settings: Homo sapiens, HL-60, 24 h, read-out: Energy Use by Undifferentiated HL-60 Cells
# [4] = tested on: DMSO-differentiated HL-60 cells; experiment: Energy use by DMSO-differentiated HL-60 cells; assay type: cell-based, human; settings: Homo sapiens, HL-60, 24 h, read-out: Energy Use by DMSO-Differentiated HL-60 Cells
# Description: In this Example, methods for testing in vitro-differentiated cells for their ability to use multiple energy sources are described. Prior to differentiation, HL-60 cells were cultured as described in Example 27. DMSO-induced differentiation (Odani et al., Res. Commun. Mol. Pathol. Pharmacol. 108:381-391 [2000]; and Yamaguchi et al., Biol. Pharm. Bull. 20:943-947 [1997]) was accomplished by incubation of the cells in the presence of 1.25% DMSO for 3 days.
# After washing, HL-60 cells were resuspended in DME-R. An aliquot of the cell suspension was counted by trypan blue exclusion and the cell density was adjusted to 6.67×10^5/mL. Fifty μL of DME-R were added to each well of the appropriate number of half area, 96-well plates, followed by 25 μL of the appropriate dilution of each test energy source. Stocks of 133 mM of each test chemical were prepared in tissue culture grade water, sterile filtered, and dilutions were prepared in a master plate so that, upon dilution into a half-area 96-well microtiter plate to a total well volume of 150 μL, the final concentrations would be 0.033 to 20 mM. Negative control wells received 25 μL of tissue culture grade water. The cells were plated at a volume of 75 μL/well, giving a final cell density of 5×10^4/well. For each plate containing energy sources and cells, a second, control plate containing only energy sources was prepared with the same total volume of liquid (148 μL/well). Plates were incubated at 5% CO2, 90-100% humidity, and 37° C. for 24 hours prior to addition of the MTS/MPMS calorimetric reagent (7.5 μL/well). The color formed in each well 24 hours after addition of the colorimetric reagent, was measured with a plate reader at 490 nm with a reference wavelength of 650 nm. OD values from the control plate were subtracted from the OD values obtained with cells prior to normalizing the data to % negative control (cells without added energy source).
# [5] = Homo sapiens, HL-60, read-out: HL-60 Cell Responses to Selected Compounds from PM1 and PM2
smiles,measurement,setting,value
CCSCCC(N)C(=O)O (racemic) [DL-ethionine],"suitability as sulfur source (growth, purple color)",E. coli MG1655 [1],not suitable
CSCCC(NC(C)=O)C(=O)O (racemic) [N-acetyl-DL-methionine],"suitability as sulfur source (growth, purple color)",E. coli MG1655 [1],positive
CSCCC(NC(=O)CN)C(=O)O (racemic) [glycyl-DL-methionine],"suitability as sulfur source (growth, purple color)",E. coli MG1655 [1],positive
NCCO [2-amino ethanol],carbon source utilization,ten strains of E. coli,−
same,"suitability as nitrogen source (growth, purple color)",E. coli MG1655 [2],not suitable
Nc1ncnc2c1ncn2[C@@H]1O[C@H](CO)[C@@H](O)[C@H]1O [Adenosine],carbon source utilization,ten strains of E. coli,+
same,"suitability as nitrogen source (growth, purple color)",E. coli MG1655 [2],not suitable
C[C@@H](N)C(=O)O [D-alanine],carbon source utilization,ten strains of E. coli,+
same,"suitability as nitrogen source (growth, purple color)",E. coli MG1655 [2],positive
N[C@H](CC(=O)O)C(=O)O [D-aspartic acid],carbon source utilization,ten strains of E. coli,−
same,"suitability as nitrogen source (growth, purple color)",E. coli MG1655 [2],not suitable
N[C@H](CO)C(=O)O [D-serine],carbon source utilization,ten strains of E. coli,+ and −
same,"suitability as nitrogen source (growth, purple color)",E. coli MG1655 [2],not suitable
NC(=O)[C@@H](O)[C@@H](O)[C@H](O)[C@@H](O)C=O [Glucuronamide],carbon source utilization,ten strains of E. coli,+
same,"suitability as nitrogen source (growth, purple color)",E. coli MG1655 [2],not suitable
NCC(=O)N[C@@H](CCC(=O)O)C(=O)O [Glycyl-L-glutamic acid] (H-Gly-Glu-OH),carbon source utilization,ten strains of E. coli,+
same,"suitability as nitrogen source (growth, purple color)",E. coli MG1655 [2],positive
C[C@H](N)C(=O)O [L-alanine],carbon source utilization,ten strains of E. coli,+
same,"suitability as nitrogen source (growth, purple color)",E. coli MG1655 [2],not suitable
C[C@H](N)C(=O)NCC(=O)O [L-alanyl-glycine] (H-Ala-Gly-OH),carbon source utilization,ten strains of E. coli,+
same,"suitability as nitrogen source (growth, purple color)",E. coli MG1655 [2],positive
N=C(N)NCCC[C@H](N)C(=O)O [L-arginine],"suitability as nitrogen source (growth, purple color)",E. coli MG1655 [2],positive
same,response in words,HL-60 cells,"strongly utilized, even at very low concentrations"
same,activity at 30 µM,HL-60 cells; [5],134%
same,activity at 100 µM,HL-60 cells; [5],138%
same,activity at 330 µM,HL-60 cells; [5],131%
same,activity at 1000 µM,HL-60 cells; [5],138%
same,activity at 3300 µM,HL-60 cells; [5],132%
same,activity at 10000 µM,HL-60 cells; [5],128%
same,activity at 15000 µM,HL-60 cells; [5],108%
same,activity at 20000 µM,HL-60 cells; [5],109%
same,activity at 30 µM,HepG2 cells,127%
same,activity at 100 µM,HepG2 cells,144%
same,activity at 330 µM,HepG2 cells,165%
same,activity at 1000 µM,HepG2 cells,142%
same,activity at 3300 µM,HepG2 cells,154%
same,activity at 10000 µM,HepG2 cells,119%
same,activity at 15000 µM,HepG2 cells,90.8%
same,activity at 20000 µM,HepG2 cells,60.3%
same,activity at 30 µM,[3],124%
same,activity at 100 µM,[3],118%
same,activity at 330 µM,[3],114%
same,activity at 1000 µM,[3],109%
same,activity at 3300 µM,[3],115%
same,activity at 10000 µM,[3],132%
same,activity at 15000 µM,[3],140%
same,activity at 20000 µM,[3],126%
same,activity at 30 µM,[4],106%
same,activity at 100 µM,[4],103%
same,activity at 330 µM,[4],122%
same,activity at 1000 µM,[4],126%
same,activity at 3300 µM,[4],123%
same,activity at 10000 µM,[4],132%
same,activity at 15000 µM,[4],119%
same,activity at 20000 µM,[4],93.4%
N[C@@H](CC(=O)O)C(=O)O [L-aspartic acid],carbon source utilization,ten strains of E. coli,+ and −
same,"suitability as nitrogen source (growth, purple color)",E. coli MG1655 [2],positive
N[C@@H](CCC(=O)O)C(=O)O [L-glutamic acid],carbon source utilization,ten strains of E. coli,+ and −
same,carbon source utilization (text),ten strains of E. coli,negative
same,"suitability as nitrogen source (growth, purple color)",E. coli MG1655 [2],positive
O=C(O)[C@@H]1CCCN1 [L-proline],carbon source utilization,ten strains of E. coli,+ and −
same,carbon source utilization (text),ten strains of E. coli,negative
same,"suitability as nitrogen source (growth, purple color)",E. coli MG1655 [2],positive
N[C@@H](CO)C(=O)O [L-serine],carbon source utilization,ten strains of E. coli,+
same,"suitability as nitrogen source (growth, purple color)",E. coli MG1655 [2],not suitable
C[C@@H](O)[C@H](N)C(=O)O [L-threonine],carbon source utilization,ten strains of E. coli,+ and −
same,carbon source utilization (text),ten strains of E. coli,negative
same,"suitability as nitrogen source (growth, purple color)",E. coli MG1655 [2],not suitable
CC(=O)N[C@H]1C(O)O[C@H](CO)[C@@H](O)[C@@H]1O (stereo partly drawn) [N-acetyl-D-glucosamine],carbon source utilization,ten strains of E. coli,+
same,"suitability as nitrogen source (growth, purple color)",E. coli MG1655 [2],positive
CC(=O)N[C@H]1[C@@H](O)[C@H](O)[C@@H](CO)O[C@H]1O [N-acetyl-β-D-mannosamine],carbon source utilization,ten strains of E. coli,+ and −
same,"suitability as nitrogen source (growth, purple color)",E. coli MG1655 [2],not suitable
NCCc1ccccc1 [Phenylethyl amine],carbon source utilization,ten strains of E. coli,−
same,"suitability as nitrogen source (growth, purple color)",E. coli MG1655 [2],not suitable
NCCc1ccc(O)cc1 [Tyramine],carbon source utilization,ten strains of E. coli,−
same,"suitability as nitrogen source (growth, purple color)",E. coli MG1655 [2],not suitable
O=c1[nH]c(=O)c2[nH]c(=O)[nH]c2[nH]1 [uric acid],"suitability as nitrogen source (growth, purple color)",E. coli MG1655 [2],not suitable
O=C(O)/C=C/c1c[nH]cn1 [urocanic acid],"suitability as nitrogen source (growth, purple color)",E. coli MG1655 [2],not suitable
O=c1[nH]c(=O)c2[nH]cnc2[nH]1 [xanthine],"suitability as nitrogen source (growth, purple color)",E. coli MG1655 [2],not suitable
O=c1[nH]c(=O)c2ncn([C@@H]3O[C@H](CO)[C@@H](O)[C@H]3O)c2[nH]1 [xanthosine],"suitability as nitrogen source (growth, purple color)",E. coli MG1655 [2],not suitable
NCCCCC(=O)O [δ-amino-n-valeric acid],"suitability as nitrogen source (growth, purple color)",E. coli MG1655 [2],positive
NCCCCCC(=O)O [ε-amino-n-caproic acid],"suitability as nitrogen source (growth, purple color)",E. coli MG1655 [2],not suitable
